Experiments:
D. immitis microfilariae = assay: Dog heart worm microfilariae motility assay; type: cell-based; conditions: Dirofilaria immitis, read-out: EC50 (motility inhibition)
[1] = test system: H. contortus (H.c.) larvae; assay: Ruminant gastrointestinal (H. contortus) larval motility assay; conditions: Haemonchus contortus, read-out: EC50 (motility inhibition)
Method: H.c. eggs isolated from lamb fecal matter are allowed to hatch overnight. Test compounds are diluted in DMSO and added to a 96-well plate containing appropriate media. H.c. larvae are added to each well and plates are incubated for the desired time(s). Motility is assessed using an LCD camera imaging system. Percent motility inhibition values are generated relative to the average of the DMSO-only wells.

T. colubriformis = assay: Gastro intestinal nematodes, infected jird model (T. colubriformis); conditions: Jirds (Meriones unguiculatus), oral, Day 6 after infection, dose between 1×3 mg/kg and 1×32 mg/kg, worms recovered from small intestine three days after treatment
Method: Jirds (Meriones unguiculatus), are artificially infected by gavage with third instar larvae each of T. colubriformis and H. contortus. Then treated orally with the test compound formulated in eg DMSO/PEG 2/1, on Day 6 after infection at a dose in a range between 1×3 mg/kg up to 1×32 mg/kg. Three days after treatment, gerbils are euthanized and dissected to recover H. contortus from stomach and T. colubriformis from the small intestine. Efficacy is expressed as a % reduction in worm numbers in comparison with a placebo treated group, using the Abbot's formula.

L. sigmodontis = assay: L.s. model in mice; conditions: oral gavage, dose between 1×3 mg/kg and 5×32 mg/kg, necropsy 5 weeks after infection
Method: Model Mice, injected subcutaneously with infective L. sigmodontis larvae, were subsequently treated with the test article formulated in eg DMSO/PEG 2/1, by oral gavage at a dose in a range between 1×3 mg/kg up to 5×32 mg/kg (one dose per day for 5 consecutive days). At necropsy 5 weeks after infection, efficacy is calculated by counting developed larvae vs. untreated animals using Abbot's formula.

SMILES	EC50 (D. immitis microfilariae)	EC50 [1]	Efficacy against Tc (% reduction in worm numbers vs placebo, Abbot's formula) (T. colubriformis)	Efficacy against Ls (developed larvae vs. untreated animals, Abbot's formula) (L. sigmodontis)
CON(C)c1c(NC(=O)[C@@H]2CCOc3ccccc32)cnc2c(-c3cc(Cl)cc(Cl)c3)cccc12 [Example 1.7, (4R)-N-[8-(3,5-dichlorophenyl)-4-[methoxy(methyl)amino]-3-quinolyl]chromane-4-carboxamide]	< 0.1 mg/L	–	–	–
O=C(Nc1cnc2c(-c3cc(Cl)cc(Cl)c3)cccc2c1N1CCOCC1)[C@H]1CCOc2ccccc21 [Example 1.12, (4S)-N-[8-(3,5-dichlorophenyl)-4-morpholino-3-quinolyl]chromane-4-carboxamide]	< 0.1 mg/L	< 1 mg/L	–	–
CN(C)c1c(NC(=O)[C@H]2CCOc3ccccc32)cnc2c(-c3cc(Cl)cc(C(F)(F)F)c3)cccc12 [Example 1.11, (4S)-N-[8-[3-chloro-5-(trifluoromethyl)phenyl]-4-(dimethylamino)-3-quinolyl]chromane-4-carboxamide]	< 0.1 mg/L	< 1 mg/L	–	–
CN(C)c1c(NC(=O)[C@@H]2CCOc3ccccc32)cnc2c(-c3cc(Cl)cc(Cl)c3)ccnc12 [Example 6.1, (4R)—N-[8-(3,5-dichlorophenyl)-4-(dimethylamino)-1,5-naphthyridin-3-yl]chromane-4-carboxamide]	–	< 1 mg/L	–	–
CN(C)c1c(NC(=O)[C@@H]2CCOc3ccccc32)cnc2c(-c3cc(Cl)cc(Cl)c3)nccc12 [Example 4.2, (4R)-N-[8-(3,5-dichloro-dichlorophenyl)-4-(dimethylamino)-1,7-naphthyridin-3-yl]chromane-4-carboxamide]	–	< 1 mg/L	–	–
CN(C)c1c(NC(=O)[C@@H]2CCCc3ccccc32)cnc2c(-c3cc(Cl)cc(Cl)c3)cccc12 [Example 1.3, (1R)-N-[8-(3,5-dichlorophenyl)-4-(dimethylamino)-3-quinolyl]tetralin-1-carboxamide]	< 0.1 mg/L	–	–	–
CN(C)c1c(NC(=O)N[C@H]2CCOc3ccccc32)cnc2c(-c3cc(Cl)cc(Cl)c3)cccc12 [Example 7.1, 1-[(4S)-Chroman-4-yl]-3-[8-(3,5-dichlorophenyl)-4-(dimethylamino)-3-quinolyl]urea]	–	< 1 mg/L	–	–
CN(C)c1c(NC(=O)[C@@H]2CCOc3ccccc32)cnc2c(-c3cc(Cl)cc(Cl)c3)cccc12 [Example 1.1, (4R)—N-[8-(3,5-dichlorophenyl)-4-(dimethylamino)-3-quinolyl]chromane-4-carboxamide]	< 0.1 mg/L	< 1 mg/L	> 80%	–
CN(C)c1c(NC(=O)[C@H]2CCOc3ccccc32)cnc2c(-c3cc(Cl)cc(Cl)c3)ccnc12 [Example 6.2, (4S)-N-[8-(3,5-dichlorophenyl)-4-(dimethylamino)-1,5-naphthyridin-3-yl]chromane-4-carboxamide]	< 0.1 mg/L	< 1 mg/L	–	–
CN(C)c1c(NC(=O)[C@H]2CCOc3ccccc32)cnc2c(-c3cccc(Cl)c3Cl)cccc12 [Example 1.9, (4S)-N-[8-(2,3-dichlorophenyl)-4-(dimethylamino)-3-quinolyl]chromane-4-carboxamide]	< 0.1 mg/L	< 1 mg/L	–	–
O=C(Nc1cnc2c(-c3cc(Cl)cc(Cl)c3)cccc2c1C1CC1)[C@H]1CCOc2ccccc21 [Example 1.6, (4S)-N-[4-cyclopropyl-8-(3,5-dichlorophenyl)-3-quinolyl]chromane-4-carboxamide]	< 0.1 mg/L	< 1 mg/L	–	–
CN(C)c1c(NC(=O)[C@H]2CCCc3ccccc32)cnc2c(-c3cc(Cl)cc(Cl)c3)cccc12 [Example 1.4, (1S)-N-[8-(3,5-dichlorophenyl)-4-(dimethylamino)-3-quinolyl]tetralin-1-carboxamide]	< 0.1 mg/L	< 1 mg/L	–	> 80%
O=C(Nc1cnc2c(-c3cc(Cl)cc(Cl)c3)ccnc2c1N1CCOCC1)[C@H]1CCOc2ccccc21 [Example 6.3, (4S)-N-[8-(3,5-dichlorophenyl)-4-morpholino-1,5-naphthyridin-3-yl]chromane-4-carboxamide]	< 0.1 mg/L	< 1 mg/L	–	–

From US20260193257A1, “BICYCLIC DERIVATIVES” (Elanco Tiergesundheit AG, priority 2018, published 2026)
